{"source": "patent US12251400B2", "about": "“Liquid concentrates of calcium and magnesium” (BIOLINK LIFE SCIENCES, INC., priority 2019, dated 2025)", "test": "In vitro assessment of phosphate binding", "details": "24 hours post-mixing", "description": "Test Preparations: Solutions of the test article (calcium propionate and magnesium propionate) and control article (calcium acetate) are prepared in deionized, purified water having 18 MO or greater resistance. The pH of each solution is adjusted to the desired value by the addition of concentrated hydrochloric acid or sodium hydroxide, as appropriate.\nTests and Assays: An HPLC method with conductivity detection was developed and validated for use in the determination of propionate, acetate and phosphate. HPLC analysis is performed using a Dionex Aquion ion chromatography system Detection of the anionic species is enabled using a Dionex ED50 Electrochemical Detector, operating in Conductivity Mode. Limits of Detection and Quantitation are enhanced through the use of a Dionex Anion Self-Regenerating Suppressor. After assay-specific development and verification of assay performance is completed, the analysis of phosphate and propionate or acetate is performed by sampling the test solution and diluting it, if necessary, to a concentration within the linear range of the Assay. The sample is then injected onto the HPLC column and eluted with a sodium hydroxide gradient. Data is acquired using Dionex Chromeleon® software. […]", "data": [{"molecule": "CC(=O)[O-].CC(=O)[O-].[Ca+2]", "note": "[calcium acetate]", "values": [{"measurement": "Pi binding", "setting": "pH 4.5", "result": "about 60%"}, {"measurement": "Pi binding", "setting": "pH 6.8", "result": "over 90%"}]}]}
